Here are results for 8 molecules from patent publication US20110143939A1, “QUINOXALIN-2-ONE DERIVATIVES, COMPOSITIONS WHICH PROTECT USEFUL PLANTS AND COMPRISE THESE DERIVATIVES, AND PROCESSES FOR THEIR PREPARATION AND THEIR USE” (Bayer CropScience AG, priority 2004, published 2011).

As to `O=c1c(-c2cccs2)nc2ccccc2n1CC1CCCO1` (centres unmarked), the melting point was found to be 123 °C.
Regarding `O=c1[nH]c2cc3c(cc2nc1-c1ccccc1)OC(F)(F)O3`, the melting point fell in the range of 291 to 292 °C.
The molecule `Cn1c(=O)c(-c2ccccc2)nc2cc3c(cc21)OC(F)(F)O3` yielded a melting point of 165 °C.
For `O=c1c(-c2cccs2)nc2ccccc2n1CC1CCC1` the value was 103 °C; for `Cn1c(=S)c(-c2cccs2)nc2ccccc21`, 113 °C; for `Cl.NCCn1c(=O)c(-c2cccs2)nc2ccccc21`, more than 250 °C.
To `CS(=O)(=O)NCCn1c(=O)c(-c2cccs2)nc2ccccc21` belongs 236 to 237 °C.
Turning to `Nn1c(=O)c(-c2cccs2)nc2ccccc21`, the melting point turned out to be 164 °C.
